# Data: the supplement of paper PMC10307832
# Compound: O=C(O)c1ccc2c(c1)nc(Nc1cccc(Cl)c1)c1ccncc12 [Silmitasertib]
# Test: relative viability (nuclei count vs DMSO), 5 days (fraction); higher = more cells survive
# Method in brief: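 Only plates meeting two conditions passed: control CV below 25% and at least one doubling. Lung cancer cell lines, kept overnight at 37 °C in 1536-well plates, were pinned with five library-drug doses (not always all listed) √10 apart on vehicle-anchored plates and grown 5 days without medium change. A one-step fix, permeabilisation and Hoechst stain preceded 4× imaging and MetaXpress nuclear counting. Viability equals treated-well nuclei divided by vehicle-well nuclei, as the median over plates.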
Cell Line,relative viability (0.04 µM),relative viability (0.4 µM),relative viability (1.265 µM),relative viability (4 µM)
NCI-H661,1.06,0.829,0.946,0.991
NCI-H727,1.18,0.619,0.833,0.894
NCI-H838,1.03,0.747,0.925,0.678
NCI-H1355,1.06,–,0.918,0.668
NCI-H1395,1.07,0.772,0.913,0.555
NCI-H1437,1.04,0.679,0.784,0.737
NCI-H1650,1.15,0.784,0.629,0.389
NCI-H1651,0.974,0.991,1.02,0.989
NCI-H1666,1.05,0.834,0.745,0.692
NCI-H1703,1.13,0.883,1.1,1.11
NCI-H1734,1.07,0.816,0.975,0.691
NCI-H1755,1.03,0.953,1.05,1.16
NCI-H1792,0.987,0.788,0.858,0.416
NCI-H1793,1.09,0.654,0.771,0.529
NCI-H1915,1.01,–,1.03,0.554
NCI-H1944,1.01,0.748,0.994,0.936
NCI-H1975,1.18,–,0.904,0.917
NCI-H1993,1.08,0.742,0.837,0.622

Cell Line,relative viability (0.04 µM),relative viability (0.4 µM),relative viability (1.265 µM),relative viability (4 µM)
NCI-H2009,1.05,0.878,0.85,0.608
NCI-H2023,1.03,0.791,0.87,0.651
NCI-H2085,1.03,0.779,0.941,0.902
NCI-H2087,1.04,0.596,0.875,0.466
NCI-H2126,0.996,0.824,0.939,0.81
NCI-H2170,1.02,0.712,0.932,0.96
NCI-H2228,0.949,0.715,1.12,1.06
NCI-H2342,1.1,0.839,0.998,0.839
NCI-H2347,1.1,0.754,0.98,0.687
NCI-H2405,1.24,0.831,0.883,0.81
NCI-H3122,0.995,0.889,1.02,0.983
PC-3 [JPC-3],1.04,0.812,1.1,0.953
PC-14,1.2,0.703,1.02,0.735
RERF-LC-KJ,1.03,0.848,0.823,0.581
SK-LU-1,1.13,0.703,0.802,0.457
SK-MES-1,1.04,0.989,0.855,0.491
SW 1573,1.19,0.955,0.876,0.779
UMC-11,1.11,0.916,0.985,0.684
